Consider two compounds from patent US20230219957A1, “SMALL MOLECULE CB002-ANALOGES RESTORE THE P53 PATHWAY AND TARGET S-PHASE CHECKPOINT” (Brown University, priority 2020, published 2023).

Usually IC50 stands for the point on the concentration scale where inhibition reaches its midpoint.

Common to all, as to format: cell-based, human
One data set deals with HCT116 p53 R175H. In words: CellTiter-Glo (Cell-Titer glow) cytotoxicity assay. The note with it: forty-eight hours. On the procedure:
(§1) CellTiter-Glo® luminescent cell viability assay. Cells were seeded in 96-well plates at a density of 5×10^3 cells per well. 20 μL of CellTiter-Glo® Reagent was added directly to the wells, following the manufacturers protocol. The bioluminescence signal was determined using an IVIS imaging system, optionally at a period of 48-72 hours after treatment.
Overexpression of p53 R175H mutant by lentivirus infection. HCT116 p53^−/− cells, obtained from the Vogelstein Laboratory, Johns Hopkins University, were infected with a lentivirus vector containing the p53 R175H mutant (pLenti6/V5-p53_R175H, Addgene). Cells were selected with blasticidin (8 μg/mL)-containing media cultured for ten days. Blasticidin-resistant clones (pooled clones) were screened for expression of the p53 R175H mutation by Western blot analysis with p53 DO-1 antibody.
CB002-analog #4 is a potent anti-tumor agent in vitro and in vivo. The inventors focused on lead CB002-analog #4 and investigated its therapeutic index in vitro and in vivo. The inventors treated an isogenic HCT116 cell line panel with 100 μM CB002 or 25 μM CB002-analog #4 and established IC50 values by the Cell-Titer glow cytotoxicity assay. Across this panel, CB002-analog #4 has a 20-fold to 30-fold range in IC50 values, independently of the HCT116 p53-status.
On the technique in general: ATP-based viability assays read luminescence as a measure of living cells.

The test system of another data set is Noxa. In words: Noxa protein expression by immunoblotting. Particulars: for Noxa protein induction upon knockdown of ATF3/4: SW480 cells, 100 μM CB002 or 25 μM CB002-analog #4. On the procedure: Immunoblotting. After treatment, cells were harvested by trypsinization, washed with phosphate-buffered saline, and lysed with RIPA buffer (Sigma-Aldrich) for thirty minutes to one hour at 4° C. Protein lysates were spun down. The supernatant was collected. Protein quantification was performed using a Pierce™ BCA Protein Assay Kit (Thermo Fisher Scientific, Waltham, Mass., USA). 1× NuPAGE® LDS sample buffer (Thermo Fisher Scientific, Waltham, Mass., USA) and 2-Mercaptoethanol as the reducing agent (Sigma-Aldrich) were added to protein lysates followed by boiling for fifteen minutes at 95° C. Equal total protein amounts samples were loaded into NuPAGE™ Novex™ 4-12% Bis-Tris Protein Gels (1.5 mm, Thermo Fisher Scientific, Waltham, Mass., USA). Gel electrophoresis was performed with NuPAGE™ MES SDS Running Buffer. Proteins were transferred onto an Immobilon-P membrane (PVDF, EMD Millipore, Taunton, Mass., USA) using a Bio-Rad system with a 10% Tris-Glycine and 10% methanol transfer buffer diluted in distilled and deionized water. After transfer, membranes were blocked with 10% milk in Tris-buffered saline with Tween 20 (TBST) solution. The membranes were then incubated overnight with the primary antibody, washed with TBST, and incubated with secondary antibody for one hour. Incubations were performed in 5% milk in TBST solution. Signal was detected by using a chemiluminescent detection kit, followed by autoradiography. The following antibodies were used: p53 (DO-1, 1:1000, Santa Cruz, Calif., USA), p73 (1:1000, Bethyl Laboratories), p21, and NOXA (1:250, EMD Millipore, Taunton, Mass., USA), DR5, FADD, cleaved caspase 3, cleaved caspase 8, cleaved PARP, and LC3B (1:1000, Cell Signaling Technology, Inc., Danvers, Mass. USA), and β-actin (1:10000, Sigma-Aldrich, St. Louis, Mo., USA).
Immunoblotting (additional method). […] Total protein per sample was determined using a Pierce™ BCA Protein Assay Kit (Thermo Fisher Scientific, Waltham, Mass., USA). […] Signal was detected using a chemiluminescent detection kit, followed by autoradiography. […]

The test system of data set [1] is colorectal cancer patient-derived organoid. Description: Cytotoxicity and immunofluorescence in patient-derived organoid. Particulars: for cleaved caspase-3 staining (apoptotic cells): IC50 doses; for ethidium homodimer staining (dead cells): compared to vehicle control. The procedure:
as §1
Immunohistochemistry. 30,000 cells/well were seeded in 8-chamber slides. Cells were washed with phosphate-buffered saline at the harvesting time point and fixed with 4% parafornaldehyde for 25 minutes. Cells were then washed with phosphate-buffered saline and permeabilized with 0.2% Triton X-100 for 5-10 minutes. Cells were then washed with phosphate-buffered saline and incubated overnight 1:100 with the primary antibody Cyt-C (#sc-13560, Santa Cruz Biotechnology, Santa Cruz, Calif., USA), Tom-20 (#42406), commercially available from Cell Signaling Technology, Inc., Danvers, Mass. USA), cells were washed with phosphate-buffered saline and incubated with secondary antibody 1:200 goat-anti mouse Alexa Fluor 488 (#A-11008, Thermo Fisher Scientific, Waltham, Mass., USA) and Cy3 AffiniPure Donkey anti-rabbit (#711-165-152, Jackson ImmunoResearch, West Grove, Pa., USA) for one hour followed by phosphate-buffered saline washing, 1:400 Dapi staining, washed with phosphate-buffered saline, and imaged. Organoid viability imaging was determined by CellTrace™ Calcein Green (#C34852, Thermo Fisher Scientific, Waltham, Mass., USA), Ethidium Homodimer-1 (#E1169, Thermo Fisher Scientific, Waltham, Mass., USA), Ki67 incubated at 37° C. for one hour then washed with phosphate-buffered saline and imaged. Imaging was done using a Leica Confocal Microscope.

For `Cn1c(=O)c2[nH]c(Nc3ccccc3)nc2n(C)c1=O` [CB002], inhibition with HCT116 p53 R175H (Homo sapiens, HCT-116) was half-maximal at 400 µM (IC50). Moreover, in the data set on Noxa (24 hours, DLD-1 and SW480 cells), the Noxa expression result is reported as “induce Noxa expression”. Moreover, in the data set on Noxa, the “Noxa protein induction upon knockdown of ATF3/4” value is listed as “abrogated Noxa protein induction”. In addition, in data set [1], the “cleaved caspase-3 staining (apoptotic cells)” value was “increases apoptotic cells” and the “ethidium homodimer staining (dead cells)” value is given as “increase of ethidium homodimer staining”.
`Cn1c(=O)c2[nH]c(Nc3cccc(C(F)(F)F)c3)nc2n(C)c1=O` [CB002-analog #4] yielded an IC50 in the data set with HCT116 p53 R175H of 4.46 µM. The “Noxa protein induction upon knockdown of ATF3/4” value in the data set with Noxa is given as “abrogated Noxa protein induction”. Besides, in data set [1], the “organoid size (calcein staining)” value is reported as “smaller in size”, the “cleaved caspase-3 staining (apoptotic cells)” value is “increases apoptotic cells” and the “ethidium homodimer staining (dead cells)” value is “increase of ethidium homodimer staining”. In data set [1] (seventy-two hours, dose-dependent), the “Ki-67 staining (proliferating cells)” value is on record as “decreases the population of proliferating cells”. Also, the “cytotoxicity (cell viability response curve)” value in data set [1] (versus CB002 parent compound) is recorded as “enhances cytotoxicity compared to the CB002 parent compound”.
